Measurements as given in patent publication US12691101B2, “Compound and method for preventing or treating of respiratory diseases comprising the same as an active ingredient” (YONSEI UNIVERSITY, UNIVERSITY - INDUSTRY FOUNDATION (UIF), priority 2019, dated 2026).

Assays:
[1] = target: T1, human wild-type (WT)-pendrin (Homo sapiens, UniProt O43511); experiment: Pendrin-mediated Cl^−/SCN^− exchange activity in CHO-K1 cells; assay type: cell-based
T1 construct: expressed in transfected cells
T1 sequence (O43511 1-780): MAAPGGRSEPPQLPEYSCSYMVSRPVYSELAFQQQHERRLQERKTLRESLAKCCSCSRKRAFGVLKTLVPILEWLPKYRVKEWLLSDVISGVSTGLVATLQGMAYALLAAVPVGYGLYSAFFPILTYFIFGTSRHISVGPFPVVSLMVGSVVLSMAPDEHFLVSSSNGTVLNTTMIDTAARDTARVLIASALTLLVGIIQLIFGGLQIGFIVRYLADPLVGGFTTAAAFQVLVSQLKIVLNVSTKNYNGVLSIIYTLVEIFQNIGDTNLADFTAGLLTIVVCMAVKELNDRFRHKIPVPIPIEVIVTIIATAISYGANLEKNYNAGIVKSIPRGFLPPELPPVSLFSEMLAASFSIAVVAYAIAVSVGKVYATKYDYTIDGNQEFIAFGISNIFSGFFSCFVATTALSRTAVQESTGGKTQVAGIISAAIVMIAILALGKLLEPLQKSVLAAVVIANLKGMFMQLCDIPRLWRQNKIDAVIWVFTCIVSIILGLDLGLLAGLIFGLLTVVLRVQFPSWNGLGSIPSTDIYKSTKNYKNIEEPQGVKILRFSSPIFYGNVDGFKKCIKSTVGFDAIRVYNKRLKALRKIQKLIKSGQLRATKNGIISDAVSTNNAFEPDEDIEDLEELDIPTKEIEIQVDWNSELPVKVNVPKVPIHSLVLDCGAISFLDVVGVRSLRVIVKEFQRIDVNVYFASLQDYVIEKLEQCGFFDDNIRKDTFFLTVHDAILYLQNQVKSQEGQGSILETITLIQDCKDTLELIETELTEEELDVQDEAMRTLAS
Experimental: For measurement of Cl^−/SCN^− exchange activity, YFP fluorescence was measured in pendrin and halide sensor YFP expressing CHO-K1 cells. To measure the Cl^−/SCN^− exchange activity, HEPES buffer solution was changed to NaSCN-substituted HEPES buffer solution (140 mM NaSCN, 5 mM KCl, 1 mM MgCl2, 1 mM CaCl2, 10 mM glucose and 10 mM HEPES (pH 7.4)) for generation of an SCN^− gradient driving SCN^− inflow by pendrin. The YFP fluorescence change by SCN^− inflow was monitored using FLUOstar Omega microplate reader (BMG Labtech) and MARS data analysis software (BMG Labtech).

human CFTR = target: T2, human CFTR (Homo sapiens, UniProt P13569); experiment: CFTR chloride channel activity in FRT cells; assay type: cell-based
T2 construct: expressed in transfected cells; host or cells: FRT (Fischer rat thyroid) cells; for F10 also expressing mutant YFP
Experimental: (A) The inhibition of mouse pendrin (mPDS)-mediated Cl^−/I^− exchange activity by F56 was measured in CHO-K1 cells (mean±S.E., n=5). The indicated concentration of F56 was pretreated for 10 minutes. (B) Summary of dose-response for inhibition of the human pendrin (hPDS)-mediated (closed circle, FIG. (a), C) and mPDS-mediated (open circle) Cl^−/I^− exchange activity. (C-F) Representative traces of intracellular pH in CHO-K1 cells expressing SLC26A3, SLC26A6, SLC26A7 and SLC26A9 were shown. The application of Cl^− free solution induced intracellular alkalization by Cl^−/HCO3^− exchange. The indicated concentration of F56 was pretreated for 10 minutes. (G) the effect of F56 (100 μM) on the CFTR chloride channel activity was measured in FRT cells expressing human CFTR. […] (H) The effect of F56 (100 μM) on the AN01 chloride channel activity was measured in FRT cells expressing human AN01. […] (I) The effect of F56 on the hERG (Kv11.1) potassium channel activity was measured in HEK293T cells expressing human Kv11.1 (mean±S.E., n=4). […] (J) The effect of F56 on the 5-HT2A channel activity was measured in FRT cells expressing human 5-HT2A (mean±S.E., n=4). […]
(A) The effect of F10 (30 μM) on the CFTR channel was measured in FRT cells expressing human CFTR and mutant YFP. […] (B) The effect of F10 (30 μM) on the AN01 channel activity was measured in FRT cells expressing human and mutant YFP. […]

mouse pendrin (mPDS) = target: T3, mouse pendrin (mPDS) (Mus musculus, UniProt Q9R155); experiment: Mouse pendrin-mediated Cl^−/I^− exchange activity in CHO-K1 cells; assay type: cell-based
T3 construct: expressed in transfected cells; host or cells: CHO-K1
Experimental: (A) The inhibition of mouse pendrin (mPDS)-mediated Cl^−/I^− exchange activity by F56 was measured in CHO-K1 cells (mean±S.E., n=5). The indicated concentration of F56 was pretreated for 10 minutes. (B) Summary of dose-response for inhibition of the human pendrin (hPDS)-mediated (closed circle, FIG. (a), C) and mPDS-mediated (open circle) Cl^−/I^− exchange activity. (C-F) Representative traces of intracellular pH in CHO-K1 cells expressing SLC26A3, SLC26A6, SLC26A7 and SLC26A9 were shown. The application of Cl^− free solution induced intracellular alkalization by Cl^−/HCO3^− exchange. The indicated concentration of F56 was pretreated for 10 minutes. (G) the effect of F56 (100 μM) on the CFTR chloride channel activity was measured in FRT cells expressing human CFTR. The CFTR current was activated by 20 μM forskolin and was inhibited by 10 μM CFTRinh-172. (H) The effect of F56 (100 μM) on the AN01 chloride channel activity was measured in FRT cells expressing human AN01. Before 10 minutes prior to AN01 activation by 100 μM ATP, F56 was added. (Right) Peak current summary (mean±S.E., n=3). (I) The effect of F56 on the hERG (Kv11.1) potassium channel activity was measured in HEK293T cells expressing human Kv11.1 (mean±S.E., n=4). […] (J) The effect of F56 on the 5-HT2A channel activity was measured in FRT cells expressing human 5-HT2A (mean±S.E., n=4). […]

pendrin mRNA = experiment: Pendrin mRNA expression in LPS-treated hAEC, real-time PCR; assay type: cell-based, human
Experimental: The total messenger RNA (mRNA) was extracted using TRIzol reagent (Invitrogen, Carlsbad, CA, USA), and was reverse-transcribed using a random hexamer primer, an oligo(dT) primer and SuperScript® III reverse transcriptase (Invitrogen). Quantitative real-time PCR was performed using StepOnePlus Real-Time PCR system (Applied Biosystems, Foster City, CA, USA) and Thunderbird SYBR qPCR mix (Tokyobo, Osaka, Japan). Thermal cycling conditions included the initial stage at 95° C. for 5 minutes, and subsequent 40 cycles at 95° C. for 10 seconds, at 55° C. for 20 seconds and at 72° C. for […].

T2 sequence (P13569 whole entry): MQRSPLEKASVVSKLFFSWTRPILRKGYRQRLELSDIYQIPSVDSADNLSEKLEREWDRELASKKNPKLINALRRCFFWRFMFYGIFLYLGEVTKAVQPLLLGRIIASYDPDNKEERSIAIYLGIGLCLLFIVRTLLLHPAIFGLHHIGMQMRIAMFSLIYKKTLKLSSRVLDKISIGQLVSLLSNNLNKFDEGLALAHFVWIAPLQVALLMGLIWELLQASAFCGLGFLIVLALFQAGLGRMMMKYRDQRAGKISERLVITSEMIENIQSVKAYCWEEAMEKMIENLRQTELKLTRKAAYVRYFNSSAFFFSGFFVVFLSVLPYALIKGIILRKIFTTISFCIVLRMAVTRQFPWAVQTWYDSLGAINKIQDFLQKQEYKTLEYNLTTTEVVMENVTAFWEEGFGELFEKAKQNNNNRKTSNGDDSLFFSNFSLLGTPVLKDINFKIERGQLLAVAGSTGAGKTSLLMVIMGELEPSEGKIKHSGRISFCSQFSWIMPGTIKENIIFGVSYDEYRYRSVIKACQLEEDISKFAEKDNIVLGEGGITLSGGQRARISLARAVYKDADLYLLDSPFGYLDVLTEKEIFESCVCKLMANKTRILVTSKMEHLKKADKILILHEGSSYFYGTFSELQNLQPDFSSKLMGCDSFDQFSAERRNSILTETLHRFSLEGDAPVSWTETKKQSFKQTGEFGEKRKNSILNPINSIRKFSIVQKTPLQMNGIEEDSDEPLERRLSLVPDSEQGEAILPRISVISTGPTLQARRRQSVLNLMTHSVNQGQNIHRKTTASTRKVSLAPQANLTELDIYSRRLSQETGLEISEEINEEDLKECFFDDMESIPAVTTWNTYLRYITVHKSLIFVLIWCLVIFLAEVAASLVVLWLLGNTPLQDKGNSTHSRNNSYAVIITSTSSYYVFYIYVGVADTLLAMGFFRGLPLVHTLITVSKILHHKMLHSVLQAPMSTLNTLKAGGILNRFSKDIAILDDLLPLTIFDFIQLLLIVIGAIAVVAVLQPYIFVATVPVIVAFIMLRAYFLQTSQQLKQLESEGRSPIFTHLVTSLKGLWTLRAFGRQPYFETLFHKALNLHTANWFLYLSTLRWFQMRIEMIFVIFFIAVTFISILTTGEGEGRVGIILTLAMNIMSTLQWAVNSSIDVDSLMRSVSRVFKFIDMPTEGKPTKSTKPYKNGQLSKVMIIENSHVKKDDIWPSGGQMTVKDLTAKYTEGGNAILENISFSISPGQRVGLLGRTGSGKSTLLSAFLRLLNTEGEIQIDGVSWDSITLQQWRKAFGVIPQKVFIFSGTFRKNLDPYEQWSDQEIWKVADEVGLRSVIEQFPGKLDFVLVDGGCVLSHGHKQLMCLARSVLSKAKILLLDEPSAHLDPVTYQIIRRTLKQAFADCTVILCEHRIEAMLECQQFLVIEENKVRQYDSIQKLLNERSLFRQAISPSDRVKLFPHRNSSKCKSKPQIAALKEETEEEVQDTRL
T3 sequence (Q9R155 whole entry): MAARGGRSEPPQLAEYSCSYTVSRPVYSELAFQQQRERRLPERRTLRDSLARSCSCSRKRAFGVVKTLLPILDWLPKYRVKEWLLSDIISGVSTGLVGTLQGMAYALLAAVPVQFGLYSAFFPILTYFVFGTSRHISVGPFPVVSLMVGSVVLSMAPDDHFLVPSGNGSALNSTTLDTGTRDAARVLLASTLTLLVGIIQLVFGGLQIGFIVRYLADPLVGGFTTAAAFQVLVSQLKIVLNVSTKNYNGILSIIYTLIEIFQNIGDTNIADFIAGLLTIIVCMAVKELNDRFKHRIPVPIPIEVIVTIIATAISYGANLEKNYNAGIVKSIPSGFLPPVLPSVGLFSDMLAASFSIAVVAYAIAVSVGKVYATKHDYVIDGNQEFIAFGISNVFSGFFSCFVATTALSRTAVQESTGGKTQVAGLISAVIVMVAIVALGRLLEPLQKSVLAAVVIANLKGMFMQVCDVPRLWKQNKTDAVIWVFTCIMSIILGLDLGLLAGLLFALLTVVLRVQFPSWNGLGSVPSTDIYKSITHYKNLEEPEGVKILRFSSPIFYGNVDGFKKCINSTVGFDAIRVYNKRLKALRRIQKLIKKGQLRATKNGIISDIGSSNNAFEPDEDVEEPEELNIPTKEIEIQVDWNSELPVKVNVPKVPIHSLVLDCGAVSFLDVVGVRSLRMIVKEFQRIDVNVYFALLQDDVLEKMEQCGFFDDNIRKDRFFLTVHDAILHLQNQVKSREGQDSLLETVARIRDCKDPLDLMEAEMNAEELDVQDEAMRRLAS

Row | Structure (SMILES) | inhibition of pendrin Cl^−/SCN^− exchange activity [1] | effect on CFTR channel activity (human CFTR; 30 μM, FRT cells with mutant YFP) | inhibition of mouse versus human pendrin-mediated exchange (mouse pendrin (mPDS)) | effect on CFTR activity (human CFTR; 100 μM, FRT cells, forskolin-activated) | mRNA expression level of pendrin (pendrin mRNA)
1 | CC(C)(C)c1ccc(C2=NC(=Cc3ccc[nH]3)C(=O)O2)cc1 [F10, 4-((1H-pyrrol-2-yl)methylene)-2-(4-(tert-butyl)phenyl)oxazol-5 (4H)-one] | strongly inhibit | did not show any effect |  |  | 
2 | CC(C)(C)c1ccc(C2=NC(=Cc3cccs3)C(=O)O2)cc1 [F56, 2-(4-(tert-butyl)phenyl)-4-(thiophen-2-ylmethylene)oxazol-5(4H)-one] | strongly inhibited |  | almost the same efficacy | not affected | did not change
